In ChEMBL document CHEMBL4251672, “Penicilindoles A-C, Cytotoxic Indole Diterpenes from the Mangrove-Derived Fungus Eupenicillium sp. HJ002” (J Nat Prod, 2018) one finds Activity and IC50 data, which are given here for 4 molecules.

For experiment [1], the system named is Staphylococcus aureus. Put plainly: Antibacterial activity against Staphylococcus aureus ATCC 25923 at 20 uM. Type of experiment: functional, organism-based.
Experiment [2] concerns Staphylococcus aureus. Put plainly: Antibacterial activity against methicillin-resistant Staphylococcus aureus ATCC 33591 at 20 uM. Type of experiment: functional, organism-based.
For a further experiment, the system named is A549. The experiment is described as follows: Cytotoxicity against human A549 cells assessed as decrease in cell viability by MTT assay. Type of experiment: functional, cell-based.
The next experiment concerns HeLa. Put plainly: Cytotoxicity against human HeLa cells assessed as decrease in cell viability by MTT assay. Type of experiment: functional, cell-based.
A further experiment has as its system Escherichia coli. Put plainly: Antibacterial activity against Escherichia coli ATCC 25922 at 20 uM. Type of experiment: functional, organism-based.
In the next experiment the test system is Vibrio alginolyticus. The experiment is described as follows: Antibacterial activity against Vibrio alginolyticus ATCC 17749 at 20 uM. Type of experiment: functional, organism-based.
The next experiment concerns Bacillus cereus. Put plainly: Antibacterial activity against Bacillus cereus ATCC 11778 at 20 uM. Type of experiment: functional, organism-based.
In the next experiment the test system is HepG2. Put plainly: Cytotoxicity against human HepG2 cells assessed as decrease in cell viability by MTT assay. Type of experiment: functional, cell-based.
Another experiment relates to Vibrio parahaemolyticus. The experiment is described as follows: Antibacterial activity against Vibrio parahaemolyticus ATCC 17802 at 20 uM. Type of experiment: functional, organism-based.

Counter-ions that a name gives are not always drawn. Activity calls are given as the source filed them. No cut-off for these calls is given here.

Regarding `CC(C)=CCC[C@@]12C(=O)CC[C@@H](C)[C@]1(C)CC[C@@](C)(O)[C@H]2Cc1c[nH]c2ccccc12`, the result with Staphylococcus aureus [1], with Staphylococcus aureus [2], with Escherichia coli, in the experiment with Vibrio alginolyticus, in the experiment on Bacillus cereus and with Vibrio parahaemolyticus was inactive. For the same molecule, the IC50 in the experiment on A549 was 18.6 µM; in the experiment with HeLa, 20 µM; in the experiment with HepG2 it was 47.2 µM.
For `O=c1[nH]cc(F)c(=O)[nH]1` [FLUOROURACIL], the values for the IC50 with A549 and in the experiment on HeLa were 36.8 µM and 28 µM, respectively.
As for `CC(C)=CCC[C@@]12[C@@H](O)CC[C@@H](C)[C@]1(C)CC[C@@](C)(O)[C@H]2Cc1c[nH]c2ccccc12`, the outcome in the experiment on Staphylococcus aureus [1], with Staphylococcus aureus [2], in the experiment with Escherichia coli, in the experiment with Vibrio alginolyticus, in the experiment on Bacillus cereus and in the experiment on Vibrio parahaemolyticus was inactive. In addition, the IC50 in the experiment on A549 came out at 5.5 µM; in the experiment on HeLa, 23.3 µM; in the experiment on HepG2, 1.5 µM.
For the molecule `COc1cccc2c1C(=O)c1c(O)c3c(c(O)c1C2=O)C[C@@](O)(C(=O)CO)C[C@@H]3O[C@H]1C[C@H](N)[C@H](O)[C@H](C)O1` [DOXORUBICIN HYDROCHLORIDE], the IC50 in the experiment on HeLa was 0.1 µM.
